According to the NIST ThermoML archive (doi:10.1021/je400472v):

Test: mean ionic activity coefficient (dimensionless); mn = molality of the nth substance listed, in mol/kg
Details: 101 kPa, Liquid

[Cl-].[Cl-].[Sr+2] [strontium chloride] + O
Details	mean ionic activity coefficient
283.15 K, m1 = 0.01	0.732
283.15 K, m1 = 0.02	0.668
283.15 K, m1 = 0.05	0.58
283.15 K, m1 = 0.1	0.519
283.15 K, m1 = 0.2	0.47
283.15 K, m1 = 0.3	0.45
293.15 K, m1 = 0.01	0.728
293.15 K, m1 = 0.02	0.663
293.15 K, m1 = 0.05	0.575
293.15 K, m1 = 0.1	0.513
293.15 K, m1 = 0.2	0.464
293.15 K, m1 = 0.3	0.444
298.15 K, m1 = 0.01	0.726
298.15 K, m1 = 0.02	0.661
298.15 K, m1 = 0.05	0.571
298.15 K, m1 = 0.1	0.509
298.15 K, m1 = 0.2	0.459
298.15 K, m1 = 0.3	0.439
298.15 K, m1 = 0.4	0.43
298.15 K, m1 = 0.5	0.428
298.15 K, m1 = 0.6	0.43
298.15 K, m1 = 0.7	0.435
298.15 K, m1 = 0.8	0.442
298.15 K, m1 = 0.9	0.451
298.15 K, m1 = 1	0.462
298.15 K, m1 = 1.2	0.489
298.15 K, m1 = 1.4	0.522
298.15 K, m1 = 1.6	0.562
298.15 K, m1 = 1.8	0.609
298.15 K, m1 = 2	0.665
298.15 K, m1 = 2.5	0.849
298.15 K, m1 = 3	1.12
298.15 K, m1 = 3.5	1.524
298.15 K, m1 = 3.52	1.544
303.15 K, m1 = 0.01	0.724
303.15 K, m1 = 0.02	0.658
303.15 K, m1 = 0.05	0.569
303.15 K, m1 = 0.1	0.507
303.15 K, m1 = 0.2	0.457
303.15 K, m1 = 0.3	0.437
313.15 K, m1 = 0.01	0.72
313.15 K, m1 = 0.02	0.653
313.15 K, m1 = 0.05	0.563
313.15 K, m1 = 0.1	0.5
313.15 K, m1 = 0.2	0.45
313.15 K, m1 = 0.3	0.429
323.15 K, m1 = 0.01	0.715
323.15 K, m1 = 0.02	0.648
323.15 K, m1 = 0.05	0.556
323.15 K, m1 = 0.1	0.493
323.15 K, m1 = 0.2	0.442
323.15 K, m1 = 0.3	0.421
333.15 K, m1 = 0.01	0.71
333.15 K, m1 = 0.02	0.642
333.15 K, m1 = 0.05	0.549
333.15 K, m1 = 0.1	0.485
333.15 K, m1 = 0.2	0.434
333.15 K, m1 = 0.3	0.413
